This is an account of results in PMC9953335 (2022).

Assay [1] deals with cKIT1 (unlabelled) (DNA, G4) GGGAGGGCGCTGGGAGGAGGG
Nature of the assay: CD titration. Conditions: K+ (50 mM KCl); 10 mM Tris-HCl, pH 7.4, 25 °C; 1-10 equiv compound.

Assay [2] deals with hTelo (unlabelled) (DNA, G4) GGGTTAGGGTTAGGGTTAGGG
Nature of the assay: CD titration. The following applies: K+ (50 mM KCl); 10 mM Tris-HCl, pH 7.4, 25 °C; 1-10 equiv compound.

For the compound `CN1[C]N(CCCN2[C]N(C)c3c2c(=O)n(C)c(=O)n3C)c2c1n(C)c(=O)n(C)c2=O.CN1[C]N(CCCN2[C]N(C)c3c2c(=O)n(C)c(=O)n3C)c2c1n(C)c(=O)n(C)c2=O.[Au+].[Au+]`, the binding result in assay [1] and in assay [2] was “yes” in each case.

Take `CN1[C]N(CCCN2[C]N(C)c3ccccc32)c2ccccc21.CN1[C]N(CCCN2[C]N(C)c3ccccc32)c2ccccc21.[Au+].[Au+]`: the binding entry in assay [1] and in assay [2] was “yes” in each case.
